Assay results as given in patent publication US11478478B2, “2,3-disubstituted 1-acyl-4-amino-1,2,3,4-tetrahydroquinoline derivatives and their use as bromodomain inhibitors” (GLAXOSMITHKLINE INTELLECTUAL PROPERTY (NO.2) LIMITED, priority 2013, dated 2022).
Where a name gives a salt, the structure may show the parent alone.

target: T1, BRD4 BD2 (Homo sapiens, UniProt O60885, Y97A); assay: TR-FRET binding assay, BRD4 BD2 (BD1-mutated protein); conditions: read-out: pIC50 in the BRD4 BD2 assay (converted)
T1 construct: BRD4 (1-477) (Y97A) and (Y390A); made in house; host or cells: E. coli (pET15b vector)
Method: Time Resolved Fluorescence Resonance Energy Transfer (TR-FRET) Assay Binding was assessed using a time resolved fluorescent resonance energy transfer binding assay. This utilises a 6 His purification tag at the N-terminal of the proteins as an epitope for an anti-6 His antibody labeled with Europium chelate (PerkinElmer AD0111) allowing binding of the Europium to the proteins which acts as the donor fluorophore. A small molecule, high affinity binder of the bromodomains BRD2, BRD3, BRD4 and BRDT has been labeled with Alexa Fluor647 (Reference Compound X) and this acts as the acceptor in the FRET pair.
In the absence of a competing compound, excitation of the Europium causes the donor to emit at λ618 nm which excites the Alexa labelled bromodomain binding compound leading to an increased energy transfer that is measurable at λ647 nM. In the presence of a sufficient concentration of a compound that can bind these proteins, the interaction is disrupted leading to a quantifiable drop in fluorescent resonance energy transfer.
The binding of the compounds of formula (I) to Bromodomains BRD2, BRD3, BRD4 and BRDT was assessed using mutated proteins to detect differential binding to either Binding Domain 1 (BD1) or Binding Domain 2 (BD2) on the bromodomain. These single residue mutations in the acetyl lysine binding pocket greatly lower the affinity of the fluoroligand (Reference Compound X) for the mutated domain (>1000 fold selective for the non-mutated domain). Therefore in the final assay conditions, binding of the fluoroligand to the mutated domain cannot be detected and subsequently the assay is suitable to determine the binding of compounds to the single non-mutated bromodomain.
Recombinant Human Bromodomains [(BRD2 (1-473) (Y113A) and (Y386A), BRD3 (1-435) (Y73A) and (Y348A) BRD4 (1-477) (Y97A) and (Y390A) and BRDT (1-397) (Y66A) and (Y309A)] were expressed in E. coli cells (in pET15b vector for BRD2/3/4 and in pET28a vector for BRDT) with a 6-His tag at the N-terminal. The His-tagged Bromodomain pellet was resuspended in 50 mM HEPES (pH7.5), 300 mM NaCl, 10 mM imidazole & 1 μl/ml protease inhibitor cocktail and extracted from the E. coli cells using sonication and purified using a nickel sepharose high performance column, the proteins were washed and then eluted with a linear gradient of 0-500 mM imidazole with buffer 50 mM HEPES (pH7.5), 150 mM NaCl, 500 mM imidazole, over 20 column volumes. Final purification was completed by Superdex 200 prep grade size exclusion column. Purified protein was stored at −80° C. in 20 mM HEPES pH 7.5 and 100 mM NaCl. Protein identity was confirmed by peptide mass fingerprinting and predicted molecular weight confirmed by mass spectrometry.
All assay components were dissolved in buffer composition of 50 mM HEPES pH7.4, 50 mM NaCl, 5% Glycerol, 1 mM DTT and 1 mM CHAPS. The final concentration of bromodomain proteins were 10 nM and the Alexa Fluor647 ligand was at Kd. These components were premixed and 5 μl of this reaction mixture was added to all wells containing 50 nl of various concentrations of test compound or DMSO vehicle (0.5% DMSO final) in Greiner 384 well black low volume microtitre plates and incubated in dark for 30 minutes at rt. 5 μl of detection mixture containing 1.5 nM final concentration anti-6His Europium chelate was added to all wells and a further dark incubation of at least 30 minutes was performed. Plates were then read on the Envision platereader, (λex=317 nm, donor λem=615 nm; acceptor λem=665 nm; Dichroic LANCE dual). Time resolved fluorescent intensity measurements were made at both emission wavelengths and the ratio of acceptor/donor was calculated and used for data analysis. All data was normalized to the mean of 16 high (inhibitor control—Example 11 of WO 2011/054846A1) and 16 low (DMSO) control wells on each plate. A four parameter curve fit of the following form was then applied: y=a+((b−a)/(1+(10^/10^)^d) […]

`CC(=O)N1c2ccc(C3=CCOCC3)cc2[C@H](Nc2ccc(C#N)cn2)[C@@H](C)[C@@H]1C1CC1` (racemic) [Example 181, rac-6-(((2S,3R,4R)-1-acetyl-2-cyclopropyyl-6-(3,6-dihydro-2H-pyran-4-yl)-3-methyl-1,2,3,4-tetrahydroquinolin-4-yl)amino)nicotinonitrile] and `CC(=O)N1c2ccc(C3=CCNCC3)cc2[C@H](Nc2ccc(C#N)cc2)[C@@H](C)[C@@H]1C1CC1` (racemic) [Example 192, rac-4-(((2S,3R,4R)-1-acetyl-2-cyclopropyl-3-methyl-6-(1,2,3,6-tetrahydropyridin-4-yl)-1,2,3,4-tetrahydroquinolin-4-yl)amino)benzonitrile] are the same in IC50: 0.1 µM for the first, 0.1 µM for the second.

`CC(=O)N1c2ccc(C3CCNCC3)cc2[C@H](Nc2cnc(C)cn2)[C@@H](C)[C@@H]1C` (racemic) [Example 183, rac-1-((2S,3R,4R)-2,3-dimethyl-4-((5-methylpyrazin-2-yl)amino)-6-(piperidin-4-yl)-3,4-dihydroquinolin-1(2H)-yl)ethanone, hydrochloride] and `CC(=O)N1c2ccc(C3CCNCC3)cc2[C@H](Nc2ccc(C#N)cn2)[C@@H](C)[C@@H]1C` (racemic) [Example 187, rac-6-(((2S,3R,4R)-1-acetyl-2,3-dimethyl-6-(piperidin-4-yl)-1,2,3,4-tetrahydroquinolin-4-yl)amino)nicotinonitrile] fall in the same range of IC50: 1 to 100 µM for the first, 1 to 100 µM for the second.

`CNC(=O)c1ccc(N[C@H]2c3cc(C4CCNCC4)ccc3N(C(C)=O)[C@@H](C)[C@@H]2C)cc1` (racemic) [Example 188, rac-4-(((2S,3R,4R)-1-acetyl-2,3-dimethyl-6-(piperidin-4-yl)-1,2,3,4-tetrahydroquinolin-4-yl)amino)-N-methylbenzamide] and `CC[C@H]1[C@H](C)[C@@H](Nc2ccc(C(=O)NC)cc2)c2cc(N3CCNCC3)ccc2N1C(C)=O` (racemic) [Example 220, rac-4-(((2S,3R,4R)-1-acetyl-2-ethyl-3-methyl-6-(piperazin-1-yl)-1,2,3,4-tetrahydroquinolin-4-yl)amino)-N-methylbenzamide] fall in the same range of IC50: 1 to 100 µM for the first, 1 to 100 µM for the second.

`CC(=O)N1c2ccc(N3CCOCC3)cc2[C@H](Nc2cccc(O)n2)[C@@H](C)[C@@H]1C1CC1` (racemic) [Example 210, rac-1-((2S,3R,4R)-2-cyclopropyl-4-((6-hydroxypyridin-2-yl)amino)-3-methyl-6-morpholino-3,4-dihydroquinolin-1(2H)-yl)ethanone] and `CC(=O)N1c2ccc(N3CCOCC3)cc2[C@H](Nc2cnc(C)cn2)[C@@H](C)[C@@H]1C1CC1` (racemic) [Example 211, rac-1-((2S,3R,4R)-2-cyclopropyl-3-methyl-4-((5-methylpyrazin-2-yl)amino)-6-morpholino-3,4-dihydroquinolin-1(2H)-yl)ethanone] fall in the same range of IC50: 1 to 100 µM for the first, 1 to 100 µM for the second.

`CC[C@H]1[C@H](C)[C@@H](Nc2cnc(C)cn2)c2cc(N3CCNCC3)ccc2N1C(C)=O` (racemic) [Example 218, rac-1-((2S,3R,4R)-2-ethyl-3-methyl-4-((5-methylpyrazin-2-yl)amino)-6-(piperazin-1-yl)-3,4-dihydroquinolin-1(2H)-yl)ethanone] and `CC[C@H]1[C@H](C)[C@@H](Nc2cnc(C#N)cn2)c2cc(N3CCNCC3)ccc2N1C(C)=O` (racemic) [Example 221, rac-5-(((2S,3R,4R)-1-acetyl-2-ethyl-3-methyl-6-(piperazin-1-yl)-1,2,3,4-tetrahydroquinolin-4-yl)amino)pyrazine-2-carbonitrile] fall in the same range of IC50: 1 to 100 µM for the first, 1 to 100 µM for the second.

`CC(=O)N1c2ccc(N3CCN[C@@H](C)C3)cc2[C@H](Nc2cnc(C)cn2)[C@@H](C)[C@@H]1C1CC1` (racemic) [Example 227, 1-((rac-2S,3R,4R)-2-cyclopropyl-3-methyl-6-((S)-3-methylpiperazin-1-yl)-4-((5-methylpyrazin-2-yl)amino)-3,4-dihydroquinolin-1(2H)-yl)ethanone] and `CNC(=O)c1ccc(N[C@H]2c3cc(N4CCN[C@@H](C)C4)ccc3N(C(C)=O)[C@@H](C3CC3)[C@@H]2C)cc1` (racemic) [Example 228, 4-(((rac-2S,3R,4R)-1-acetyl-2-cyclopropyl-3-methyl-6-((S)-3-methylpiperazin-1-yl)-1,2,3,4-tetrahydroquinolin-4-yl)amino)-N-methylbenzamide] fall in the same range of IC50: 1 to 100 µM for the first, 1 to 100 µM for the second.

`CNC(=O)c1ccc2c(c1)[C@H](Nc1ccc(C#N)cn1)[C@@H](C)[C@H](C)N2C(C)=O` (racemic) [Example 230, rac-(2S,3R,4R)-1-acetyl-4-((5-cyanopyridin-2-yl)amino)-N,2,3-trimethyl-1,2,3,4-tetrahydroquinoline-6-carboxamide] and `CC[C@H]1[C@H](C)[C@@H](Nc2ccc(C#N)cn2)c2cc(C(=O)NC)ccc2N1C(C)=O` (racemic) [Example 237, rac-(2S,3R,4R)-1-acetyl-4-((5-cyanopyridin-2-yl)amino)-2-ethyl-N,3-dimethyl-1,2,3,4-tetrahydroquinoline-6-carboxamide] are the same in IC50: 0.1 µM for the first, 0.1 µM for the second.

`CNC(=O)c1ccc2c(c1)[C@H](Nc1cccc(C)n1)[C@@H](C)[C@H](C)N2C(C)=O` (racemic) [Example 231, rac-(2S,3R,4R)-1-acetyl-N,2,3-trimethyl-4-((6-methylpyridin-2-yl)amino)-1,2,3,4-tetrahydroquinoline-6-carboxamide] and `CC[C@@H]1[C@@H](C)[C@H](Nc2cccc(C)n2)c2cc(C(=O)NC)ccc2N1C(C)=O` (racemic) [Example 235, rac-(2S,3R,4R)-1-acetyl-2-ethyl-N,3-dimethyl-4-((6-methylpyridin-2-yl)amino)-1,2,3,4-tetrahydroquinoline-6-carboxamide] are the same in IC50: 0.1 µM for the first, 0.1 µM for the second.

`CNC(=O)c1ccc2c(c1)[C@H](Nc1nccc(C)n1)[C@@H](C)[C@H](C1CC1)N2C(C)=O` (racemic) [Example 240, rac-(2S,3R,4R)-1-acetyl-2-cyclopropyl-N,3-dimethyl-4-((4-methylpyrimidin-2-yl)amino)-1,2,3,4-tetrahydroquinoline-6-carboxamide] and `CNC(=O)c1ccc2c(c1)[C@H](Nc1ccc(C#N)cc1)[C@@H](C)[C@H](C1CC1)N2C(C)=O` (racemic) [Example 243, rac-(2S,3R,4R)-1-acetyl-4-((4-cyanophenyl)amino)-2-cyclopropyl-N,3-dimethyl-1,2,3,4-tetrahydroquinoline-6-carboxamide] are the same in IC50: 0.1 µM for the first, 0.1 µM for the second.

`CCNC(=O)c1ccc2c(c1)[C@H](Nc1cccc(C)n1)[C@@H](C)[C@H](CC)N2C(C)=O` (racemic) [Example 279, rac-(2S,3R,4R)-1-acetyl-N,2-diethyl-3-methyl-4-((6-methylpyridin-2-yl)amino)-1,2,3,4-tetrahydroquinoline-6-carboxamide] and `CC[C@H]1[C@H](C)[C@@H](Nc2cccc(C)n2)c2cc(C(=O)NCCC#N)ccc2N1C(C)=O` (racemic) [Example 283, rac-(2S,3R,4R)-1-acetyl-N-(2-cyanoethyl)-2-ethyl-3-methyl-4-((6-methylpyridin-2-yl)amino)-1,2,3,4-tetrahydroquinoline-6-carboxamide] are the same in IC50: 0.1 µM for the first, 0.1 µM for the second.

`CC[C@H]1[C@H](C)[C@@H](Nc2cccc(C)n2)c2cc(C(=O)NC(C)C)ccc2N1C(C)=O` (racemic) [Example 285, rac-(2S,3R,4R)-1-acetyl-2-ethyl-N-isopropyl-3-methyl-4-((6-methylpyridin-2-yl)amino)-1,2,3,4-tetrahydroquinoline-6-carboxamide] showed an IC50 of 0.1 µM.
